“Also recorded” adds a separate entry of the source.

The test system of series [1] is LN229 MGMT−/MMR+ and LN229 MGMT−/MMR− (or MGMT−/MSH6−) flank tumors. Nature of the series: Murine flank tumor models. In kind it is in vivo. To be noted: for median OS: Kaplan-Meier. The method, then:
Mouse Protocols for Flank Studies. A mouse tumor model was established by subcutaneously implanting human LN229 (MGMT−/MMR+) or LN229 (MGMT−/MMR−) cells. Cells were cultured as a monolayer in DMEM+10% FBS (Thermo Fisher) at 37° C. in a humidified atmosphere with 5% CO2 and passaged between one and three days prior to implantation and media was replaced every 2-3 days as needed to maintain cell viability. Cells were not allowed to exceed 80% confluency. On the day of implantation, cells were trypsinized, washed with complete media and pelleted by centrifugation at 1200 rpm for 5 minutes. The supernatant was decanted, and cells were washed three times with sterile PBS and pelleted by centrifugation. During the final centrifugation, viability was determined using trypan blue exclusion. Cells were resuspended in sterile PBS and diluted 1:1 in Matrigel (Corning, Cat #47743-716) for a final concentration of 5×10^6 cells/100 μL. 5 million cells were injected into the flank of female nude mice (Envigo, Hsd:Athymic Nude-Foxn1^nu, 3-4 weeks age, 15 g). Once tumors reached a minimum volume of 100 mm^3, mice were randomized and administered either KL-50 (4a; 5 mg/kg MWF×3 weeks), TMZ (1a; 5 mg/kg MWF×3 weeks), or vehicle (10% cyclodextrin) by oral gavage. Caliper measurements were obtained during the dosing period and at least two weeks following treatment. Mice were euthanized if body weight loss exceeded 20% or if tumor volume increased to greater than 2000 mm^3. Kaplan-Meier analysis was used to evaluate survival rate based on death or removal from study.
In a second study, mice were randomized and administered either KL-50 (4a) or vehicle (10% cyclodextrin) by oral gavage or intraperitoneal injection on either M-F×1 or MWF×3 cycles at 5, 15, or 25 mgs/kg. Caliper measurements were obtained during the dosing period and at least two weeks following treatment. Mice were euthanized if body weight loss exceeded 20% or if tumor volume increased to greater than 2000 mm^3.
The third study involved MGMT−/MMR+ and MGMT−/MSH6− (shMSH6) LN229 cells. Mice tumors were allowed to grow to a larger average starting volume of ˜350 mm^3 before they were randomized and administered either KL-50 (4a; 25 mg/kg MWF×3 weeks) or vehicle (10% cyclodextrin) by oral gavage. Caliper measurements were obtained during the dosing period and at least two weeks following treatment. Mice were euthanized if body weight loss exceeded 20% or if tumor volume increased to greater than 3000 mm^3.

For series [2], the system named is WT and XPA-deficient MEFs. Nature of the series: Short-term cell viability assay in NER isogenic MEFs. To be noted: WT versus XPA-deficient MEFs, ± MGMT depletion with O6BG. Type of series: cell-based, mouse. How it is done:
FIGS. ZS5A-ZS5D. […] Columns, mean; error bars, SD; n=2 independent analyses. For (FIG. ZS5A) and (FIG. ZS5C), points, mean; error bars, SD; n=3 technical replicates.
(§1) Short-term Cell Viability Assay. Cells were seeded in 96-well plates at 1000 or 2000 cells/well and allowed to adhere at 23° C. for 60 min and then incubated overnight at 37° C. Cells were treated with indicated concentrations of compounds in triplicate for 4-6 days prior to fixation with 3.7% paraformaldehyde and nuclear staining with 1 μg/mL Hoechst 33342 dye. Cells were imaged on a Cytation 3 imaging reader (BioTek) and quantified using CellProfiler software.

The test system of series [3] is LN229 MGMT−/MMR− cells. Nature of the series: Short-term cell viability assay. Type of series: cell-based, human. To be noted: Homo sapiens, LN-229. How it is done: as §1
Statistical analysis. Statistical analysis was performed using GraphPad Prism software. Data are presented as mean or median±SD or SEM as indicated. For in vitro short-term growth delay experiments, IC50 values were determined from the nonlinear regression equation, [inhibitor] vs normalized response with variable slope. […]
We synthesized the imidazotetrazine 4a (KL-50) and the triazene 4b (KL-85), as vehicles to deliver 2-fluoroethyl diazonium (4c), and a series of related agents to probe structure-activity relationships in tissue culture (FIG. Z1, D and F). […] We evaluated the cytotoxicity of our compounds in short-term cell viability assays against four isogenic LN229 glioblastoma cell lines engineered to be proficient or deficient in MGMT and/or MMR activity, using short hairpin RNAs (shRNAs) targeting MSH2 (referred to as MGMT+/−, MMR+/− cells hereafter; FIG. ZS2A). […]

For series [4], the system named is LN229 MGMT+/−, MMR+/− cells. Nature of the series: Cell cycle analysis. In kind it is cell-based, human. To be noted: 20 μM, 24 to 48 h; cell status given in the value. The method, then:
Cell Cycle Analysis. Cell cycle analysis was performed using integrated Hoechst nucleic acid dye fluorescence. Briefly, integrated Hoechst fluorescence intensity was log 2 transformed and histograms from DMSO-treated cells were used to identify the centers of the 2N and 4N DNA peaks. These values were used to normalize the 2N DNA peak to 1 and the 4N DNA peak to 2. Cells were then classified by normalized log 2 DNA content as GI (0.75-1.25), S (1.25-1.75), or G2 (1.75-2.5) phase cells. The percentage of cells within each phase of the cell cycle was determined for each treatment condition. The three sets of Hoechst-stained cells corresponding to the three separate DNA foci stains were treated as three independent analyses.

The mark [5] stands for this setting: LN229 MGMT−/MMR− flank tumor-bearing mice, 5 mg/kg P.O. MWF×3 weeks.

In the case of `NC(=O)c1ncn2c(=O)n(CCF)nnc12` [KL-50, 3-(2-fluoroethyl)-4-oxo-3H,4H-imidazo[4,3-d][1,2,3,5]tetrazine-8-carboxamide], in series [1] (5 mg/kg P.O. MWF×3 weeks), the “tumor growth, MGMT−/MMR+ flank tumors (in words)” value is listed as “statistically non-inferior to TMZ (1a)” and the “tumor growth, MGMT−/MMR− flank tumors (in words)” value is reported as “potently suppressed tumor growth”. In series [1] (setting [5]), the “increase in median OS vs TMZ” value is “greater than 5 week” and the “median OS” value is on record as “greater than 15 weeks”. In addition, the “body weight (in words)” value in series [1] (LN229 flank tumor experiments, 5 mg/kg P.O. MWF×3 weeks) is “no significant changes in body weight”. Moreover, the “efficacy and toxicity over regimens (in words)” value in series [1] (MGMT−/MMR+ and MGMT−/MMR− flank tumors, 5, 15, 25 mg/kg, MWF×3 weeks or M-F×1 week, PO or IP) was “effective and non-toxic; also recorded: equal efficacy with no observable increases in toxicity”. Besides, the “growth of large tumors (in words)” value in series [1] (~350-400 mm^3 MGMT−/MMR+ and MGMT−/MSH6− tumors, 25 mg/kg PO MWF×3 weeks) was “potently suppressed the growth”. Besides, in series [2], the “sensitivity of XPA deficient cells (in words)” value is reported as “absence of additional sensitivity”. Besides, in series [3], the concentration for half-maximal inhibition (IC50) is about 20 µM. Also, the “cell cycle arrest (in words)” value in series [4] is “increasing G2 arrest on progression from 24 to 48 h in MGMT−/MMR+ cells; also recorded: attenuated G2 arrest in MGMT−/MMR− cells; also recorded: moderate G2 arrest in MGMT+/MMR+ cells”.

For `Cn1nnc2c(C(N)=O)ncn2c1=O` [TMZ, temozolomide, reference compound], in series [1] (5 mg/kg P.O. MWF×3 weeks), the “tumor growth, MGMT−/MMR+ flank tumors (in words)” value is recorded as “suppressed tumor growth” and the “tumor growth, MGMT−/MMR− flank tumors (in words)” value was “no efficacy”. Moreover, in series [1] (setting [5]), the “median OS” value amounted to 10 weeks. Besides, in series [4], the “cell cycle arrest (in words)” value is listed as “This effect in MGMT−/MMR− cells was absent; also recorded: moderate G2 arrest in MGMT+/MMR+ cells”.

Values taken from patent publication US20240400572A1, “COMPOUNDS AND METHODS FOR TREATING CANCERS THAT ARE MGMT DEFICIENT REGARDLESS OF MMR STATUS” (Yale University, priority 2021, published 2024).
